Here are results for 35 compounds from patent publication US7655665B2, “Nitromethylene derivatives and their use” (East China University of Science and Technology, priority 2004, dated 2010).

The test system of one series is Nilaparvata lugens. Briefly: Insecticidal activity against Nilaparvata lugens (planthopper) by spraying. Format: in vivo. To be noted: 500 ppm; for mortality (%) (500 ppm) Nilaparvata lugens: spraying 2 ml, counted after 24 hours; for mortality (%) (500 ppm) Nilaparvata-lugens: spraying 2 ml per tumbler, killed counted after 24 hours. As to the method:
(§1) Test on the insecticidal activity of Compound Nos. 1-227
Planthopper, which belongs to Homoptera and has a piercing-sucking mouthpart, is a common insect for agricultural plant. Nilaparvata lugens was tested by the way of spraying.
Test method: the test compound was exactly formulated into a solution having a certain concentration and clean water was used as a blank control. Each process was repeated for 3 tumblers (3 times). 2 ml of solution was sprayed uniformly to each tumbler by a mini manual sprayer. 10 Nilaparvata lugens were introduced to every sink 6 hours before spraying. Three series of experiments were conducted. The number of killed Nilaparvata lugens was counted after 24 hours to calculate the mortality.

A further series concerns Aphis craccivoral. The experiment in a line: Insecticidal activity against Aphis craccivoral by immersing (dipping aphids on bean sprout). Type of series: in vivo. To be noted: 23° C. Here is the method:
as §1
Aphis, which belongs to Homoptera and has a piercing-sucking mouthpart, is a common insect for agricultural plant. Aphis craccivoral was tested by the way of immersing.
Test method: exactly weighed various samples were independently added to N,N-dimethylformamide to form a 10 g/L stock solution. The mixture was diluted with 0.2 mL/L aqueous Triton X-100 solution to a concentration of 500 ug/mL. After stably sucking on bean sprout, the adult aphis without wings together with bean sprout was dipped into 500 ug/mL dilution, taken out after 5 seconds, and the excess dilution was sucked out with bibulous paper and the adult aphis without wings was incubated in clean vessel at a constant temperature of 23° C. Each concentration was repeated for 3 times and the control group contained 0.2 mL/L aqueous Triton X-100 solution. The number of killed aphis was counted after 24 hours to calculate the mortality.

Where [1] appears, read: 500 ppm, immersing (dipped 5 seconds), counted after 24 hours.
Where [2] appears, read: 500 ppm (500 ug/mL dilution), dipped 5 seconds, killed aphis counted after 24 hours.

Consider `O=C(OC1CCC([N+](=O)[O-])=C2N(Cc3ccc(Cl)nc3)CCN21)c1cc(F)c(F)cc1F` (stereo not shown) [Compound 127], for which the “mortality (%) (500 ppm) Nilaparvata lugens” value with Nilaparvata lugens is listed as 78%. In addition, the “mortality (%) (500 ppm) Aphis” value with Aphis craccivoral (setting [1]) was found to be 45%.
In the case of `CC(C)N=C1CCC([N+](=O)[O-])=C2N(Cc3cnc(Cl)s3)CCCN12` [Compound 227], the “mortality (%) (500 ppm) Nilaparvata-lugens” value in the series with Nilaparvata lugens came out at 100%. Besides, in the series with Aphis craccivoral (setting [2]), the “mortality (%) (500 ppm) Aphis” value is recorded as 100%.
As for `N=C1CCC([N+](=O)[O-])=C2N(Cc3ccc(Cl)nc3)CCCN12` [Compound 201], the “mortality (%) (500 ppm) Nilaparvata-lugens” value in the series with Nilaparvata lugens is 55%. Also, the “mortality (%) (500 ppm) Aphis” value in the series with Aphis craccivoral (setting [2]) worked out at 54%.
Regarding `CCOC1CCC([N+](=O)[O-])=C2N(CC3CCOC3)CCN21` (stereo not shown) [Compound 47], the “mortality (%) (500 ppm) Nilaparvata lugens” value in the series on Nilaparvata lugens was 100%. Besides, the “mortality (%) (500 ppm) Aphis” value with Aphis craccivoral (setting [1]) came out at 45%.
As for `CC(C)OC1CCC([N+](=O)[O-])=C2N(Cc3cnc(Cl)s3)CCCN21` (stereo not shown) [Compound 91], in the series on Nilaparvata lugens, the “mortality (%) (500 ppm) Nilaparvata lugens” value is 71%. For the same compound, the “mortality (%) (500 ppm) Aphis” value in the series on Aphis craccivoral (setting [1]) is given as 69%.
Take `COC1CCC([N+](=O)[O-])=C2N(Cc3cnc(Cl)s3)CCN21` (racemic) [Compound 24]: the “mortality (%) (500 ppm) Nilaparvata lugens” value in the series with Nilaparvata lugens came to 100%. Besides, in the series on Aphis craccivoral (setting [1]), the “mortality (%) (500 ppm) Aphis” value is reported as 100%.
As for `CCCCCN=C1CCC([N+](=O)[O-])=C2N(Cc3cnc(Cl)s3)CCN12` [Compound 218], in the series with Nilaparvata lugens, the “mortality (%) (500 ppm) Nilaparvata-lugens” value is on record as 67%. Further, the “mortality (%) (500 ppm) Aphis” value in the series with Aphis craccivoral (setting [2]) was determined as 45%.
Regarding `CCCCSC1CCC([N+](=O)[O-])=C2N(Cc3ccc(Cl)nc3)CCN21` (stereo not shown) [Compound 139], the “mortality (%) (500 ppm) Nilaparvata lugens” value in the series with Nilaparvata lugens turned out to be 78%. For the same compound, in the series with Aphis craccivoral (setting [1]), the “mortality (%) (500 ppm) Aphis” value was 34%.
Turning to `N=C1CCC([N+](=O)[O-])=C2N(Cc3cnc(Cl)s3)CCN12` [Compound 212], in the series on Nilaparvata lugens, the “mortality (%) (500 ppm) Nilaparvata-lugens” value is listed as 23%. In addition, the “mortality (%) (500 ppm) Aphis” value in the series with Aphis craccivoral (setting [2]) was 34%.
For `CC(C)CSC1CCC([N+](=O)[O-])=C2N(Cc3ccc(Cl)nc3)CCN21` (stereo not shown) [Compound 140], the “mortality (%) (500 ppm) Nilaparvata lugens” value with Nilaparvata lugens is 78%. Moreover, in the series with Aphis craccivoral (setting [1]), the “mortality (%) (500 ppm) Aphis” value worked out at 67%.
With `CCCCOC1CCC([N+](=O)[O-])=C2N(Cc3ccc(Cl)nc3)CCCN21` (stereo not shown) [Compound 79], in the series with Nilaparvata lugens, the “mortality (%) (500 ppm) Nilaparvata lugens” value was found to be 61%. Moreover, the “mortality (%) (500 ppm) Aphis” value in the series with Aphis craccivoral (setting [1]) turned out to be 52%.
Regarding `O=[N+]([O-])C1=C2N(Cc3cnc(Cl)s3)CCCN2C(=NCCCl)CC1` [Compound 223], the “mortality (%) (500 ppm) Nilaparvata-lugens” value in the series on Nilaparvata lugens is listed as 76%. For the same compound, the “mortality (%) (500 ppm) Aphis” value in the series on Aphis craccivoral (setting [2]) came out at 5%.
Take `COCCSC1CCC([N+](=O)[O-])=C2N(Cc3ccc(Cl)nc3)CCN21` (stereo not shown) [Compound 148]: in the series on Nilaparvata lugens, the “mortality (%) (500 ppm) Nilaparvata lugens” value worked out at 89%. In addition, the “mortality (%) (500 ppm) Aphis” value with Aphis craccivoral (setting [1]) is 67%.
The corresponding values for `O=C(OC1CCC([N+](=O)[O-])=C2N(Cc3ccc(Cl)nc3)CCN21)c1ccc(F)cc1` (stereo not shown) [Compound 123] are 100% and 56%.
As for `O=C(OC1CCC([N+](=O)[O-])=C2N(Cc3cnc(Cl)s3)CCN21)c1ccccc1F` (stereo not shown) [Compound 168], in the series with Nilaparvata lugens, the “mortality (%) (500 ppm) Nilaparvata-lugens” value amounted to 100%. Also, in the series on Aphis craccivoral (setting [2]), the “mortality (%) (500 ppm) Aphis” value amounted to 56%.
The corresponding values for `N=C1CCC([N+](=O)[O-])=C2N(Cc3ccc(Cl)nc3)CCN12` [Compound 188] are 67% and 55%.
`CC(C)SC1CCC([N+](=O)[O-])=C2N(Cc3ccc(Cl)nc3)CCN21` (stereo not shown) [Compound 137]: the “mortality (%) (500 ppm) Nilaparvata lugens” value in the series with Nilaparvata lugens is listed as 100%. In addition, in the series on Aphis craccivoral (setting [1]), the “mortality (%) (500 ppm) Aphis” value was found to be 89%.
The like results for `O=[N+]([O-])C1=C2N(Cc3ccc(Cl)nc3)CCN2C(OS(=O)(=O)C(F)(F)F)CC1` (stereo not shown) [Compound 118] were, in that order, 100% and 81%.
As for `O=[N+]([O-])C1=C2N(CC3CCOC3)CCCN2C(O)CC1` (stereo not shown) [Compound 99], the “mortality (%) (500 ppm) Nilaparvata lugens” value in the series on Nilaparvata lugens was determined as 7%. In addition, in the series with Aphis craccivoral (setting [1]), the “mortality (%) (500 ppm) Aphis” value is 6%.
Consider `O=[N+]([O-])C1=C2N(Cc3cnc(Cl)s3)CCN2C(OC(C(F)(F)F)C(F)(F)F)CC1` (racemic) [Compound 30], for which the “mortality (%) (500 ppm) Nilaparvata lugens” value in the series with Nilaparvata lugens amounted to 98%. In addition, the “mortality (%) (500 ppm) Aphis” value in the series on Aphis craccivoral (setting [1]) was found to be 58%.
In the case of `CCN=C1CCC([N+](=O)[O-])=C2N(Cc3ccc(Cl)nc3)CCCN12` [Compound 203], the “mortality (%) (500 ppm) Nilaparvata-lugens” value with Nilaparvata lugens turned out to be 100%. In the series on Aphis craccivoral (setting [2]), the “mortality (%) (500 ppm) Aphis” value amounted to 92%.
`O=C(OC1CCC([N+](=O)[O-])=C2N(Cc3ccc(Cl)nc3)CCN21)C(Cl)(Cl)Cl` (stereo not shown) [Compound 115]: the “mortality (%) (500 ppm) Nilaparvata lugens” value in the series on Nilaparvata lugens was found to be 33%. The “mortality (%) (500 ppm) Aphis” value in the series on Aphis craccivoral (setting [1]) turned out to be 0%.
For `COC1CCC([N+](=O)[O-])=C2N(Cc3cnc(Cl)s3)CCCN21` (stereo not shown) [Compound 86], in the series with Nilaparvata lugens, the “mortality (%) (500 ppm) Nilaparvata lugens” value was 100%. Besides, in the series on Aphis craccivoral (setting [1]), the “mortality (%) (500 ppm) Aphis” value was found to be 100%.
On to `CCCN=C1CCC([N+](=O)[O-])=C2N(Cc3cnc(Cl)s3)CCN12` [Compound 217], for which the “mortality (%) (500 ppm) Nilaparvata-lugens” value with Nilaparvata lugens was found to be 100%. The “mortality (%) (500 ppm) Aphis” value in the series with Aphis craccivoral (setting [2]) was found to be 23%.
As to `O=[N+]([O-])C1=C2N(Cc3ccc(Cl)nc3)CCCN2C(O)CC1` (stereo not shown) [Compound 71], the “mortality (%) (500 ppm) Nilaparvata lugens” value in the series with Nilaparvata lugens was 0%. In addition, the “mortality (%) (500 ppm) Aphis” value in the series on Aphis craccivoral (setting [1]) is listed as 6%.
The corresponding values for `CCCC(C)OC1CCC([N+](=O)[O-])=C2N(Cc3cnc(Cl)s3)CCN21` (mixture of isomers) [Compound 38] are 67% and 35%.
With `O=[N+]([O-])C1=C2N(Cc3ccc(Cl)nc3)CCN2C(OS(=O)(=O)c2ccccc2)CC1` (stereo not shown) [Compound 119], the “mortality (%) (500 ppm) Nilaparvata lugens” value with Nilaparvata lugens is given as 23%. Moreover, in the series on Aphis craccivoral (setting [1]), the “mortality (%) (500 ppm) Aphis” value is listed as 3%.
With `CC(C)(C)COC1CCC([N+](=O)[O-])=C2N(Cc3cnc(Cl)s3)CCN21` (racemic) [Compound 39], in the series with Nilaparvata lugens, the “mortality (%) (500 ppm) Nilaparvata lugens” value is recorded as 35%. The “mortality (%) (500 ppm) Aphis” value in the series on Aphis craccivoral (setting [1]) is listed as 24%.
The corresponding values for `CCCCCSC1CCC([N+](=O)[O-])=C2N(Cc3ccc(Cl)nc3)CCN21` (stereo not shown) [Compound 143] are 34% and 23%.
Turning to `CCCC(C)N=C1CCC([N+](=O)[O-])=C2N(Cc3ccc(Cl)nc3)CCCN12` (stereo not shown) [Compound 210], the “mortality (%) (500 ppm) Nilaparvata-lugens” value in the series with Nilaparvata lugens is listed as 77%. Further, the “mortality (%) (500 ppm) Aphis” value in the series on Aphis craccivoral (setting [2]) amounted to 7%.
In the case of `CCC(C)OC1CCC([N+](=O)[O-])=C2N(CC3CCOC3)CCCN21` (stereo not shown) [Compound 109], in the series on Nilaparvata lugens, the “mortality (%) (500 ppm) Nilaparvata lugens” value is recorded as 10%. In addition, the “mortality (%) (500 ppm) Aphis” value with Aphis craccivoral (setting [1]) is recorded as 2%.
The like results for `O=C(OC1CCC([N+](=O)[O-])=C2N(Cc3ccc(Cl)nc3)CCN21)c1cc(F)c(Cl)cc1Cl` (stereo not shown) [Compound 125] were, in that order, 92% and 67%.
`CCCCSC1CCC([N+](=O)[O-])=C2N(Cc3cnc(Cl)s3)CCN21` (stereo not shown) [Compound 178]: in the series with Nilaparvata lugens, the “mortality (%) (500 ppm) Nilaparvata-lugens” value came out at 12%. For the same compound, the “mortality (%) (500 ppm) Aphis” value in the series with Aphis craccivoral (setting [2]) amounted to 23%.
Regarding `O=[N+]([O-])C1=C2N(CC3CCOC3)CCN2C(OCC(F)(F)F)CC1` (stereo not shown) [Compound 49], the “mortality (%) (500 ppm) Nilaparvata lugens” value with Nilaparvata lugens was 32%. Besides, the “mortality (%) (500 ppm) Aphis” value with Aphis craccivoral (setting [1]) worked out at 45%.
Consider `O=[N+]([O-])C1=C2N(Cc3ccc(Cl)nc3)CCN2C(=NCCCl)CC1` [Compound 191], for which the “mortality (%) (500 ppm) Nilaparvata-lugens” value with Nilaparvata lugens is 78%. Moreover, the “mortality (%) (500 ppm) Aphis” value in the series on Aphis craccivoral (setting [2]) worked out at 53%.
